Reference: the supplement of paper PMC13207355

Legend:
Settings in all cases: exposure time: 72 h
[1] = test system: FT3469 (normal neural stem cell line); assay: phenotypic distance (Euclidean, principal components) from DMSO controls (arbitrary units); higher = stronger morphological change
[2] = test system: E28 (patient-derived glioblastoma stem cells of classical subtype); assay: as above
[3] = test system: E13 (patient-derived glioblastoma stem cells of classical subtype); assay: as above
[4] = test system: E34 (patient-derived glioblastoma stem cells of proneural subtype); assay: as above
[5] = test system: E57 (patient-derived glioblastoma stem cells of mesenchymal subtype); assay: as above
[6] = test system: E21 (patient-derived glioblastoma stem cells of mesenchymal subtype); assay: as above
[7] = test system: E31 (patient-derived glioblastoma stem cells of proneural subtype); assay: as above
[8] = test system: FT3469; assay: surviving fraction (nuclei count normalised to DMSO); higher = more cells surviving (less toxic)
[9] = test system: E28; assay: as above
[10] = test system: E13; assay: as above
[11] = test system: E34; assay: as above
[12] = test system: E57; assay: as above
[13] = test system: E21; assay: as above
[14] = test system: E31; assay: as above
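For phenotypic distance (Euclidean, principal components) from DMSO controls in this document: cell Painting imaging in 384-well plates, CellProfiler features reduced to at least 20 principal components, Euclidean distance versus same-plate DMSO vehicle wells (0.1% v/v), median over six images per well.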
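For surviving fraction (nuclei count normalised to DMSO) in this document: nuclei counted by high-content imaging of Hoechst-stained cells in laminin-coated 384-well plates, relative to 0.1% DMSO vehicle wells, with staurosporine as cell-death control.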

NCc1ccccc1CC(=O)N[C@@H]1C(=O)N2C(C(=O)O)=C(CSc3nnnn3CC(=O)O)CS[C@H]12 [Ceforanide]
Settings	phenotypic distance	surviving fraction
[1], 4.1 nM	0.788	–
[1], 12.3 nM	0.666	–
[1], 37 nM	0.745	–
[1], 111.1 nM	0.803	–
[1], 333.3 nM	0.916	–
[1], 1000 nM	0.851	–
[1], 3000 nM	1.28	–
[2], 4.1 nM	0.755	–
[2], 12.3 nM	0.829	–
[2], 37 nM	0.872	–
[2], 111.1 nM	0.701	–
[2], 333.3 nM	0.858	–
[2], 1000 nM	1.54	–
[2], 3000 nM	1.07	–
[3], 4.1 nM	0.868	–
[3], 12.3 nM	0.834	–
[3], 37 nM	0.565	–
[3], 111.1 nM	2.99	–
[3], 333.3 nM	0.49	–
[3], 1000 nM	0.481	–
[3], 3000 nM	1.06	–
[4], 4.1 nM	0.618	–
[4], 12.3 nM	0.456	–
[4], 37 nM	0.886	–
[4], 111.1 nM	0.834	–
[4], 333.3 nM	0.882	–
[4], 1000 nM	0.522	–
[4], 3000 nM	0.877	–
[5], 4.1 nM	0.735	–
[5], 12.3 nM	0.47	–
[5], 37 nM	0.604	–
[5], 111.1 nM	0.425	–
[5], 333.3 nM	0.594	–
[5], 1000 nM	0.792	–
[5], 3000 nM	0.948	–
[6], 4.1 nM	0.452	–
[6], 12.3 nM	0.464	–
[6], 37 nM	0.533	–
[6], 111.1 nM	0.73	–
[6], 333.3 nM	0.545	–
[6], 1000 nM	0.643	–
[6], 3000 nM	0.896	–
[7], 4.1 nM	0.821	–
[7], 12.3 nM	0.599	–
[7], 37 nM	0.687	–
[7], 111.1 nM	0.68	–
[7], 333.3 nM	0.855	–
[7], 1000 nM	0.963	–
[7], 3000 nM	0.779	–
[8], 4.1 nM	–	0.899
[8], 12.3 nM	–	0.944
[8], 37 nM	–	0.806
[8], 111.1 nM	–	1.05
[8], 333.3 nM	–	0.931
[8], 1000 nM	–	1.08
[8], 3000 nM	–	0.785
[9], 4.1 nM	–	1.01
[9], 12.3 nM	–	0.94
[9], 37 nM	–	1.19
[9], 111.1 nM	–	0.907
[9], 333.3 nM	–	0.952
[9], 1000 nM	–	0.963
[9], 3000 nM	–	0.899
[10], 4.1 nM	–	0.857
[10], 12.3 nM	–	0.899
[10], 37 nM	–	0.892
[10], 111.1 nM	–	0.955
[10], 333.3 nM	–	0.967
[10], 1000 nM	–	0.991
[10], 3000 nM	–	0.821
[11], 4.1 nM	–	1.07
[11], 12.3 nM	–	1.01
[11], 37 nM	–	1.2
[11], 111.1 nM	–	0.873
[11], 333.3 nM	–	1.1
[11], 1000 nM	–	0.901
[11], 3000 nM	–	0.86
[12], 4.1 nM	–	0.871
[12], 12.3 nM	–	0.985
[12], 37 nM	–	0.982
[12], 111.1 nM	–	0.995
[12], 333.3 nM	–	1
[12], 1000 nM	–	0.926
[12], 3000 nM	–	0.897
[13], 4.1 nM	–	0.96
[13], 12.3 nM	–	1
[13], 37 nM	–	1
[13], 111.1 nM	–	0.945
[13], 333.3 nM	–	0.927
[13], 1000 nM	–	0.94
[13], 3000 nM	–	0.913
[14], 4.1 nM	–	0.969
[14], 12.3 nM	–	0.993
[14], 37 nM	–	0.944
[14], 111.1 nM	–	1.06
[14], 333.3 nM	–	0.801
[14], 1000 nM	–	0.895
[14], 3000 nM	–	1.03
